We go through 3 molecules from ChEMBL document CHEMBL1153154, “A single step purification for autolytic zinc proteinases” (Bioorg Med Chem Lett, 2010).

Molecules are shown by their SMILES.

A word on the Kd: it is a measure of binding affinity in units of concentration. A lower Kd goes with tighter binding.

The target in assay [1] is T1, Stromelysin-1 (Homo sapiens, UniProt P08254). The assay can be described thus: Binding affinity to stromelysin-1 catalytic domain expressed in Escherichia coli BL21 (DE3) by isothermal titration […]. For orientation: Isothermal titration calorimetry measures the heat released or taken up as one component is titrated into another.
T1 sequence (P08254 whole entry, the tested form may be a part): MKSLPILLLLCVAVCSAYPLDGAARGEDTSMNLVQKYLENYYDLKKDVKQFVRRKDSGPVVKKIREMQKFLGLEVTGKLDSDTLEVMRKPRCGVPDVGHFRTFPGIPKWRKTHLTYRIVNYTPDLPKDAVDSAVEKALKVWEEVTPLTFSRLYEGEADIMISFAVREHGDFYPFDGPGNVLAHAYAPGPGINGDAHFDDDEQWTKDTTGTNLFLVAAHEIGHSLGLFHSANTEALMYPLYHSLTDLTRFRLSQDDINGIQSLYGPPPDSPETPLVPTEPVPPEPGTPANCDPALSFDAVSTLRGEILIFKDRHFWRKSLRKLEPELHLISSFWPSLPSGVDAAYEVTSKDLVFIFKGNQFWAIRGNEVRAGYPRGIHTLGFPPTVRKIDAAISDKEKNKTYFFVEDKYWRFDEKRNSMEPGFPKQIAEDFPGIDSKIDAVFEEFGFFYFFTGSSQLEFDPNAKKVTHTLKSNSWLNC
Assay [2] addresses T1, Stromelysin-1. Kind of assay: Binding affinity to stromelysin-1 catalytic domain.

`COc1ccc(S(=O)(=O)N[C@@H](C(=O)NO)C(C)C)cc1`: the values for the Kd on Stromelysin-1 [1] and on Stromelysin-1 [2] were 43 nM and 113 nM, respectively.
With `N#Cc1ccc(-c2ccc(OCCC(=O)NO)cc2)cc1`, the Kd on Stromelysin-1 [1] worked out at 110 nM; at Stromelysin-1 [2], 100 nM.
The matching figures for `N#Cc1ccc(-c2ccc(OCCCCC(=O)NO)cc2)cc1`: 17000 nM and 11000 nM.
